Assay results reported in patent US7267964B2, “DNA molecules encoding ligand gated ion channels from Dermacentor variabilis” (priority 2000, dated 2007).

Assays:
Format in all cases: cell-based, Dermacentor variabilis
DvLGIC/GluCl 7-1 = assay: Two-microelectrode voltage clamp of Xenopus oocytes injected with DvLGIC/GluCl 7-1 RNA
Text: (§1) Synthesis of in vitro transcribed capped RNA—A PCR strategy was used to add the T7 promoter upstream of the initiating methionine (ATG) and a polyA^+ tail following the stop codon (TAG) of the open reading frame (ORF) of clones DvLGIC/GluCl1, DvLGIC/GluCl 11, DvLGIC/GluCl 7-1 and DvLGIC/GluCl 10-2. Amplified ORFs which contained the flanking T7 promoter and polyA^+ tail were used directly as templates in the in vitro transcription reaction (mMessage mMachine™, Ambion, Austin, Tex.). After removal of DNA template, the volume was adjusted to 100 μl with nuclease free water, and RNA purified using a G-50 Sephadex Column (Boehringer Mannheim, Indianapolis, Ind.). The elutate was extracted with an equal volume of phenol/chloroform, followed with a second chloroform extraction, precipitated with isopropyl alcohol, and resuspended in nuclease-free water to a storage concentration of 1 μg/μl.
(§2) Xenopus laevis oocytes were prepared and injected using standard methods previously described [Arena, J. P., Liu, K. K., Paress, P. S. & Cully, D. F. Mol. Pharmacol. 40, 368-374 (1991); Arena, J. P., Liu, K. K., Paress, P. S., Schaeffer, J. M. & Cully, D. F., Mol. Brain Res. 15, 339-348 (1992)]. Adult female Xenopus laevis were anesthetized with 0.17% tricaine methanesulfonate and the ovaries were surgically removed and placed in a solution consisting of (mM): NaCl 82.5, KCl 2, MgCl2 1, HEPES 5, NaPyruvate 2.5, Penicillin G. 100,000 units/L, Streptomycin Sulfate 1000 mg/L, pH 7.5 (Mod. OR-2). Ovarian lobes were broken open, rinsed several times in Mod. OR-2, and incubated in 0.2% collagenase (Sigma, Type1) in Mod. OR-2 at room temperature with gentle shaking. After 1 hour the collagenase solution was renewed and the oocytes were incubated for an additional 30-90 min until approximately 50% of the oocytes were released from the ovaries. Stage V and VI oocytes were selected and placed in media containing (mM): NaCl 96, KCl 2, MgCl2 1, CaCl2 1.8, HEPES 5, NaPyruvate 2.5, theophylline 0.5, gentamicin […], pH 7.5 (ND-96) for 16-24 hours before injection. Oocytes were injected with 50 nl of DvLGIC/GluCl1 or DvLGIC/GluCl 7-1 RNA at a concentration of 0.2 mg/ml. Oocytes were incubated at 18° C. for 1-6 days in ND-96 before recording.
(§3) Recordings were made at room temperature in modified ND-96 consisting of (mM): NaCl 96, MgCl2 1, CaCl2 0.1, BaCl2 3.5, HEPES 5, pH 7.5. Oocytes were voltage clamped using a Dagan CA1 two microelectrode amplifier (Dagan Corporation, Minneapolis, Minn.) interfaced to a Macintosh 7100/80 computer. The current passing electrode was filled with 0.7 M KCl, 1.7 M KCitrate, and the voltage recording electrode was filled with 1 M KCl. Throughout the experiment oocytes were superfused with modified ND-96 (control solution) or with ND-96 containing potential channel activators and blockers at a rate of approximately 3 ml/min. Data were acquired at 100 Hz and filtered at 33.3 Hz using Pulse software from HEKA Elektronik (Lambrecht, Germany). All recordings were performed from a holding potential of either 0 or −30 mV.

DvLGIC/GluCl 10-2 = DvLGIC/GluCl 10-2 expressed in Xenopus oocytes, current response; conditions: concentration not given
Text: as §1
(§4) Xenopus laevis oocytes were prepared and injected using standard methods previously described [Arena, J. P., Liu, K. K., Paress, P. S. & Cully, D. F. Mol. Pharmacol. 40, 368-374 (1991); Arena, J. P., Liu, K. K., Paress, P. S., Schaeffer, J. M. & Cully, D. F., Mol. Brain Res. 15, 339-348 (1992)]. […]

DvLGIC/GluCl 1 = assay: Two-microelectrode voltage clamp of Xenopus oocytes injected with DvLGIC/GluCl 1 RNA
Text: as §1, §2, §3

DvLGIC/GluCl 11 = DvLGIC/GluCl 11 expressed in Xenopus oocytes, current response; conditions: concentration not given
Text: as §1, §4

[1] = 1 μM ivermectin phosphate, holding potential 0 or −30 mV
[2] = Xenopus oocytes, concentration not given
[3] = after 1 μM ivermectin phosphate

Sequence of DvLGIC/GluCl 11 (as listed by the source): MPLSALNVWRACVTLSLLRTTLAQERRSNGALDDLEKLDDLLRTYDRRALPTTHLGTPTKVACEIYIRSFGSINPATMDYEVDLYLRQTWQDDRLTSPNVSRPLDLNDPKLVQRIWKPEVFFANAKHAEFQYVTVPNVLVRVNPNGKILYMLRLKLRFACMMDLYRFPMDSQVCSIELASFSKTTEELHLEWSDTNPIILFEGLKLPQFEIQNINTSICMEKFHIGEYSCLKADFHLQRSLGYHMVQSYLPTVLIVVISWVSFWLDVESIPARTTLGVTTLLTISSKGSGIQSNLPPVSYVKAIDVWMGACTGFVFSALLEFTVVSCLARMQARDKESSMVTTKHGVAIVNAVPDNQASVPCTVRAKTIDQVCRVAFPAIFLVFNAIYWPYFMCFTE

Row | Compound | current in response to application (DvLGIC/GluCl 7-1; 1 mM glutamate) | responsiveness of the channel to the substance (DvLGIC/GluCl 10-2) | current in response to application (DvLGIC/GluCl 1; 1 mM glutamate) | current in response to application (DvLGIC/GluCl 7-1; [1]) | concentration at which current activation was maximal (DvLGIC/GluCl 7-1; DvLGIC/GluCl 7-1 expressed in Xenopus oocytes, FIG. 10) [µM] | current in response to addition (DvLGIC/GluCl 7-1; [2]) | reversibility of current upon wash-out (DvLGIC/GluCl 7-1; [3]) | current in response to addition (DvLGIC/GluCl 11) | current in response to application (DvLGIC/GluCl 1; [1]) | concentration at which current activation was maximal (DvLGIC/GluCl 1; Xenopus oocytes injected with DvLGIC/GluCl 1 mRNA, FIG. 9) [µM] | current in response to addition (DvLGIC/GluCl 1; [2]) | reversibility of current upon wash-out (DvLGIC/GluCl 1; [3])
1 | N[C@@H](CCC(=O)O)C(=O)O [glutamate] | did not activate a current | not responsive | did not activate a current |  |  |  |  |  |  |  |  | 
2 | ivermectin phosphate |  | not responsive |  | slowly activating current | ~1 | exhibit a current | irreversible | exhibit a current | slowly activating current | 1 | exhibit a current | irreversible
